# Assay results from patent publication US10537557B2, “Methods of treating respiratory disorders” (CASE WESTERN RESERVE UNIVERSITY, priority 2016, dated 2020).
# How the values were obtained:
# hyperoxia-exposed mice = assay: Lung mechanics: methacholine challenge after neonatal hyperoxia (BPD model), flexiVent Rrs; format: in vivo, C57BL/6 mice; conditions: for Rrs in response to aerosolized methacholine challenge (airway hyperreactivity): 3-week-old mice raised in hyperoxia (60%), compared with room air controls; for Rrs increase in hyperoxia, methacholine dose response (FIG. 5A-B): at 3 weeks and after room air recovery at 6 weeks of age; for Rrs in response to aerosolized methacholine challenge (airway hyperresponsiveness): six-week-old mice, 3 weeks neonatal hyperoxia then room air recovery
# Procedure: Animal protocols were approved by the Institutional Animal Care and Use Committee at Case Western Reserve University (Cleveland, Ohio). Timed pregnant C57BL/6 mice (Charles River Laboratories, Wilmington, Mass.) were maintained on 12-hour light-dark cycles with ad libitum standard food and water. Within 24 hours of birth, litters were pooled and randomized into exposure groups. Paired with a nursing dam, pups were raised in 60% oxygen or room air (21%) for 21 days. Hyperoxia-exposed animals were housed in standard cages placed in a 38-L Plexiglas chamber with a continuous flow of blended oxygen (2 L/min). Oxygen concentrations were monitored twice daily via an oxygen analyzer (miniOX I; MSA Medical, Gurnee, Ill.). To control for oxygen exposures, nursing dams were rotated between paired litters during weekly cage changes. Ventilator studies were conducted and/or tissue harvested within 24 hours of removal from hyperoxia at 3 weeks. A subgroup of animals was returned to room air following 3 weeks of initial hyperoxia exposure and subsequently recovered to 6 weeks of age for adult lung mechanic and GSNOR activity studies.
# N6022 is a selective small molecule reversible inhibitor of GSNOR. Powdered N6022 (Nivalis Therapeutics, Boulder, Colo., purchased through MedChem Express, Monmouth Junction, N.J.) was reconstituted in sterile PBS (pH 7.4) and administered to hyperoxia exposed mice as a single 1 mg/kg i.p. injection the day prior to testing lung mechanics.
# Under general anesthesia (i.p. ketamine/xylazine), mice were placed supine on a heated surgical table, tracheostomized, and ventilated via a 19-gauge blunt-tip cannula with a commercial rodent ventilator (flexiVent; SCIREQ, Montreal, Canada). Animals were paralyzed (i.p. pancuronium bromide; Sigma-Aldrich) and ventilated at default settings: tidal volume of 10 mL/kg, a rate of 150 breaths/min, a positive end expiratory pressure of 3 cm H2O, and a FiO2 of 50%. Following two recruitment deep inflations of sustained inspiration up to a pressure of 30 cm H2O for 3 seconds, 10 mM GSNO or saline vehicle was aerosolized over 10 seconds using an ultrasonic nebulizer (Aeroneb; SCIREQ) diverted into the ventilator's inspiratory flow. Inhaled GSNO concentration was chosen based upon the published studies in ventilated guinea pigs and human trials in cystic fibrosis. After 5 minutes had elapsed, two recruitment deep inflations were again delivered, and increasing methacholine doses of 0, 12.5, 25, 50, 100, and 200 mg/mL were similarly aerosolized over 10 seconds to generate a dose-response curve. Using computer software (flexiWare 5.1, Version 7.2, SCIREQ), five measurements of respiratory system resistance (Rrs) were calculated by a 2.5 Hz single-frequency forced oscillation maneuver (Snapshot 150), and an average was reported for each methacholine dose. Respiratory mechanics were measured in both 3-week-old mice immediately following sustained hyperoxia exposure and separate 6-week-old mice that were recovered in room air following the initial 3 weeks of hyperoxia exposure.
# Data are expressed as means±S.E.M. A minimum of two litters or experiments was used for each study; n represent individual animals or cell transfections. Data containing two groups were first tested for normality and variance and then analyzed by two sample student t test, Welch's t test, or Mann-Whitney U test, as appropriate. For multiple comparisons, analysis of variance with Tukey-Kramer post hoc test was used. Alterations in airway reactivity with increasing doses of methacholine were compared by two-way analysis of variance repeated-measures analysis with Tukey-Kramer post hoc comparisons using a fixed-sequence method from highest to lowest methacholine dose. P, 0.05 was considered statistically significant.
# room air-exposed mice = assay: Lung mechanics: methacholine challenge in room air-exposed mice, flexiVent Rrs; format: in vivo, C57BL/6 mice; conditions: both ages (3 and 6 weeks), GSNO pretreatment, data not shown
# Procedure: Animal protocols were approved by the Institutional Animal Care and Use Committee at Case Western Reserve University (Cleveland, Ohio). Timed pregnant C57BL/6 mice (Charles River Laboratories, Wilmington, Mass.) were maintained on 12-hour light-dark cycles with ad libitum standard food and water. Within 24 hours of birth, litters were pooled and randomized into exposure groups. Paired with a nursing dam, pups were raised in 60% oxygen or room air (21%) for 21 days. Hyperoxia-exposed animals were housed in standard cages placed in a 38-L Plexiglas chamber with a continuous flow of blended oxygen (2 L/min). Oxygen concentrations were monitored twice daily via an oxygen analyzer (miniOX I; MSA Medical, Gurnee, Ill.). […]
# Under general anesthesia (i.p. ketamine/xylazine), mice were placed supine on a heated surgical table, tracheostomized, and ventilated via a 19-gauge blunt-tip cannula with a commercial rodent ventilator (flexiVent; SCIREQ, Montreal, Canada). […] Using computer software (flexiWare 5.1, Version 7.2, SCIREQ), five measurements of respiratory system resistance (Rrs) were calculated by a 2.5 Hz single-frequency forced oscillation maneuver (Snapshot 150), and an average was reported for each methacholine dose. […]
# Data are expressed as means±S.E.M. A minimum of two litters or experiments was used for each study; n represent individual animals or cell transfections. […]
# [1] = Gaston et al. 1994; cited from earlier work
Structure (SMILES),Rrs in response to aerosolized methacholine challenge (airway hyperreactivity) (hyperoxia-exposed mice; single 1 mg/kg i.p. injection the day prior),"Rrs increase in hyperoxia, methacholine dose response (FIG. 5A-B) (hyperoxia-exposed mice; 1 mg/kg N6022 injection)",Rrs in response to aerosolized methacholine challenge (airway hyperresponsiveness) (hyperoxia-exposed mice; 1 mg/kg i.p. injection),Rrs compared with room air saline-treated controls (room air-exposed mice),Rrs in response to aerosolized methacholine challenge (airway hyperreactivity) (hyperoxia-exposed mice; pretreatment 10 mM GSNO aerosol over 10 seconds),"Rrs increase in hyperoxia, methacholine dose response (FIG. 5A-B) (hyperoxia-exposed mice; 10 mM GSNO aerosol)",Rrs in response to aerosolized methacholine challenge (airway hyperresponsiveness) (hyperoxia-exposed mice; pretreatment 10 mM GSNO aerosol),bronchodilator potency relative to theophylline [1]
"Cc1cc(C(N)=O)ccc1-n1c(CCC(=O)O)ccc1-c1ccc(-n2ccnc2)cc1 [N6022, reference compound]","attenuated these changes as well, such that this group was no longer significantly different from room air controls at all methacholine doses",attenuated these changes,remained effective in attenuating the hyperoxia induced airway hyperresponsiveness,,,,,
"N[C@@H](CCC(=O)N[C@@H](CSN=O)C(=O)NCC(=O)O)C(=O)O [GSNO, S-nitrosoglutathione]",,,,did not significantly change Rrs,"attenuated these changes, such that this group was no longer significantly different from room air controls, except at the highest methacholine dose (200 mg/mL)",attenuated these changes,remained effective in attenuating the hyperoxia induced airway hyperresponsiveness,100 fold
